# Reference: ChEMBL document CHEMBL1138506, “Exploration of structure-activity relationship determinants in analogue series” (J Med Chem, 2009)
# Columns and labels:
# [1] = target: Prothrombin (Homo sapiens) (UniProt P00734); experiment: Inhibition of human thrombin
# Cytochrome P450 3A4 = Cytochrome P450 3A4 (Homo sapiens, UniProt P08684); experiment: Inhibition of human CYP3A4; type: ADME
# [2] = target: T1, Peroxisomal multifunctional enzyme type 2 (Homo sapiens) (UniProt P51659); experiment: Inhibition of hydroxysteroid-17-beta dehydrogenase 4
# T1 sequence (whole entry): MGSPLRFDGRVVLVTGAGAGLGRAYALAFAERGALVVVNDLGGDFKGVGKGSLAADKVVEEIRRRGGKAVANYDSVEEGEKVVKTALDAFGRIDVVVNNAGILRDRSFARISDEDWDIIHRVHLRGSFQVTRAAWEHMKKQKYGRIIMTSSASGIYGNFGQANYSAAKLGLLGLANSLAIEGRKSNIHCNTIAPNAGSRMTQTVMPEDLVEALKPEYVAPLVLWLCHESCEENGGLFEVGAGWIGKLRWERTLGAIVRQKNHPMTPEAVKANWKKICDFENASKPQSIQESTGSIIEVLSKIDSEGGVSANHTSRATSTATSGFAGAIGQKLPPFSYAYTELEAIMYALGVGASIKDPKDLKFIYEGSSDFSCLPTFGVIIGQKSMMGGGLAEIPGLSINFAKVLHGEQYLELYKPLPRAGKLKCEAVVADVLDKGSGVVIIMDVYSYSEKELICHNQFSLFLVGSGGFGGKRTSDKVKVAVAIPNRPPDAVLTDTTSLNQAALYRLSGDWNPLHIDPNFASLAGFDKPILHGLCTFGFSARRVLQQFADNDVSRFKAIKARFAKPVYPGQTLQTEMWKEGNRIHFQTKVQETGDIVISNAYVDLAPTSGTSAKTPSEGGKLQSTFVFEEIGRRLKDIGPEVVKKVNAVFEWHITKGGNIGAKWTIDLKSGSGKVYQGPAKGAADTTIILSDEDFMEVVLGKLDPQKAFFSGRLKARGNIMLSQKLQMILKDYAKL
# Cytochrome P450 3A4, sequence (P08684 whole entry): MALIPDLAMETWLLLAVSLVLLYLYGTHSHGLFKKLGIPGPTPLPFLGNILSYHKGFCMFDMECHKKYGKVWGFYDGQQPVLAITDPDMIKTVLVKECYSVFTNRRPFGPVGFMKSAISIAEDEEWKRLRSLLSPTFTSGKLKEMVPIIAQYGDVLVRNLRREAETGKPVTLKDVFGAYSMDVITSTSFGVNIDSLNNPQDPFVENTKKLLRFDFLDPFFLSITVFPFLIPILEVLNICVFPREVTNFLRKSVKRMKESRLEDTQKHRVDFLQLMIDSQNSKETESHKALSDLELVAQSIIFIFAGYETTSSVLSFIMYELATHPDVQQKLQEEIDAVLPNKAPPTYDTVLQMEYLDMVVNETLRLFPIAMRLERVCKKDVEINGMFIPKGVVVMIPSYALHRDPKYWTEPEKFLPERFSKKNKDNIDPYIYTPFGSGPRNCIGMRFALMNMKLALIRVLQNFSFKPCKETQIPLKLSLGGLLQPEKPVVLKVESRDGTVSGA
Compound,Activity (Cytochrome P450 3A4),further results
CSc1nc(-c2ccco2)nn1C(=O)c1ccccc1,,Activity [1]: 82 nM
COc1ccccc1CNc1ncnc2ccc(-c3ccccc3CN(C)C)cc12,12.6 µM,
COc1ccc(C(=O)n2nc(-c3ccco3)nc2N)cc1,,Activity [1]: 828 nM
COc1ccc(CNc2ncnc3ccc(-c4ccc(N(C)C)cc4)cc23)c(OC)c1,4 µM,
Cc1cccc(CNc2ncncc2-c2cccc(NS(C)(=O)=O)c2)c1,158 µM,
COc1ccc(CNc2ncncc2-c2cccc(C#N)c2)c(OC)c1,316 µM,
CN(C)c1ccc(-c2ccc3ncnc(NCc4ccccc4)c3c2)cc1,2.5 µM,
Cc1cccc(CNc2ncncc2-c2ccccc2C)c1,398 µM,
COc1ccccc1CNc1ncncc1-c1ccccc1Cl,199 µM,
COc1ccc(CNc2ncncc2-c2ccc(N(C)C)cc2)c(OC)c1,199 µM,
COc1cccc(-c2cncnc2NCc2ccccc2)c1,316 µM,
COc1cccc(-c2cncnc2NCc2cccc(C)c2)c1,398 µM,
Cc1cccc(CNc2ncncc2-c2ccc(C(=O)N(C)C)cc2)c1,631 µM,
COc1ccccc1-c1ccc2ncnc(NCc3ccccc3)c2c1,12.6 µM,
COc1ccccc1CNc1ncncc1-c1ccc(C(=O)N(C)C)cc1,2512 µM,
COc1ccccc1CNc1ncnc2ccc(-c3cccc(NS(C)(=O)=O)c3)cc12,3.2 µM,
CN(C)C(=O)c1ccc(-c2cncnc2NCc2ccccc2)cc1,2512 µM,
COc1ccc(CNc2ncnc3ccc(-c4cccc(C#N)c4)cc23)c(OC)c1,1.6 µM,
COc1ccc(CNc2ncnc3ccc(-c4ccccc4CN(C)C)cc23)c(OC)c1,8 µM,
Cc1cccc(CNc2ncncc2-c2cccc(C#N)c2)c1,199 µM,
COc1ccc(CNc2ncncc2-c2ccccc2CN(C)C)c(OC)c1,398 µM,
CN(C)Cc1ccccc1-c1ccc2ncnc(NCc3ccccc3)c2c1,15.8 µM,

Compound,Activity (Cytochrome P450 3A4),further results
COC(=O)C(C)Oc1ccc2c3c(c(=O)oc2c1)CCCCC3 (stereo not given),,Activity [2]: 32 µM
Cc1cccc(CNc2ncnc3ccc(-c4ccccc4C#N)cc23)c1,1.2 µM,
COc1ccc(CNc2ncncc2-c2ccccc2C(F)(F)F)c(OC)c1,316 µM,
COc1ccc(CNc2ncncc2-c2ccccc2OC)cc1,199 µM,
COc1ccccc1CNc1ncncc1-c1cccc(NS(C)(=O)=O)c1,251 µM,
COc1ccc(CNc2ncnc3ccc(-c4cccc(NS(C)(=O)=O)c4)cc23)c(OC)c1,2 µM,
COc1ccc(C(=O)n2nc(-c3ccco3)nc2SC)cc1OC,,Activity [1]: 204 nM
Cc1ccc(C(=O)n2nc(-c3ccco3)nc2N)cc1,,Activity [1]: 741 nM
COc1ccc(CNc2ncncc2-c2ccc(C(=O)N(C)C)cc2)c(OC)c1,501 µM,
CSc1nc(-c2ccco2)nn1C(=O)c1ccc(C)cc1,,Activity [1]: 159 nM
N#Cc1cccc(-c2cncnc2NCc2ccccc2)c1,1259 µM,
COc1ccccc1CNc1ncnc2ccc(-c3ccccc3C#N)cc12,4 µM,
COc1ccccc1C(=O)n1nc(-c2ccco2)nc1N,,Activity [1]: 6930 nM
COc1ccccc1CNc1ncncc1-c1ccccc1C(F)(F)F,79 µM,
COc1ccc(CNc2ncnc3ccc(-c4ccccc4OC)cc23)c(OC)c1,2 µM,
CC(=O)COc1ccc2c3c(c(=O)oc2c1C)CCCCC3,,Activity [2]: 13 µM
COc1ccc(CNc2ncncc2-c2ccccc2C)c(OC)c1,398 µM,
CN(C)C(=O)c1ccc(-c2ccc3ncnc(NCc4ccccc4)c3c2)cc1,15.8 µM,
Nc1nc(-c2ccco2)nn1C(=O)c1ccc(Cl)cc1,,Activity [1]: 1460 nM
COc1ccccc1-c1cncnc1NCc1cccc(C)c1,100 µM,
COc1ccc(CNc2ncnc3ccc(-c4ccccc4C#N)cc23)c(OC)c1,1 µM,
CS(=O)(=O)Nc1cccc(-c2cncnc2NCc2ccccc2)c1,631 µM,

Compound,Activity (Cytochrome P450 3A4),further results
COc1cccc(-c2cncnc2NCc2ccccc2OC)c1,501 µM,
COc1ccccc1C(=O)n1nc(-c2ccco2)nc1SC,,Activity [1]: 1 nM
Cc1cccc(CNc2ncnc3ccc(-c4ccc(C(=O)N(C)C)cc4)cc23)c1,2 µM,
Nc1nc(-c2ccco2)nn1C(=O)c1ccccc1,,Activity [1]: 926 nM
COc1ccccc1CNc1ncnc2ccc(-c3ccc(N(C)C)cc3)cc12,2 µM,
COc1ccccc1CNc1ncnc2ccc(-c3cccc(C#N)c3)cc12,8 µM,
CC(=O)C(C)Oc1ccc2c3c(c(=O)oc2c1)CCCCC3 (stereo not given),,Activity [2]: 25 µM
COc1cccc(-c2cncnc2NCc2ccc(OC)cc2OC)c1,501 µM,
Nc1nc(-c2ccco2)nn1C(=O)c1ccccc1Cl,,Activity [1]: 14000 nM
COc1ccccc1CNc1ncnc2ccc(-c3ccccc3OC)cc12,6.3 µM,
COc1ccc(CNc2ncncc2-c2ccccc2OC)c(OC)c1,316 µM,
NC(=O)COc1ccc2c3c(c(=O)oc2c1)CCCCC3,,Activity [2]: 25 µM
COc1ccccc1-c1cncnc1NCc1ccccc1,251 µM,
Cc1cccc(CNc2ncncc2-c2ccccc2Cl)c1,199 µM,
Cc1ccccc1-c1cncnc1NCc1ccccc1,316 µM,
COc1ccc(C(=O)n2nc(-c3ccco3)nc2N)cc1OC,,Activity [1]: 2230 nM
Cc1cccc(CNc2ncncc2-c2ccccc2C(F)(F)F)c1,79 µM,
COc1cccc(-c2ccc3ncnc(NCc4ccc(OC)cc4OC)c3c2)c1,2.5 µM,
COc1ccc(CNc2ncncc2-c2cccc(NS(C)(=O)=O)c2)c(OC)c1,251 µM,
COc1ccc(CNc2ncnc3ccc(-c4ccc(C(=O)N(C)C)cc4)cc23)c(OC)c1,2.5 µM,
COc1ccccc1CNc1ncnc2ccc(-c3ccc(C(=O)N(C)C)cc3)cc12,10 µM,
